From patent US8067382B2, “Anthelmintic composition” (Merial Limited, priority 2002, dated 2011)

How the values were obtained:
liver flukes = details: background statement; cited from earlier work
[1] = Stability trial of Formulation 1 stored at ambient for 11 months, HPLC assay of actives; format: physicochemical
Protocol: A stability trial was conducted to ensure that the triclabendazole solution was stable. A formulation made as described in example 1 (“Formulation 1”) was stored at ambient for 11 months. At the conclusion of the storage period samples were tested for total abamectin and triclabendazole levels. [table]

[2] = background statement; cited from earlier work

Compound | Efficacy against liver flukes by life cycle stage (liver flukes) | Loss in activity after storage [1] | Physical stability of the solution after storage [1] | Solubility [2]
CCCSc1ccc2nc(NC(=O)OC)[nH]c2c1 [Albendazole] | only effective against adult flukes | – | – | –
CSc1nc2cc(Cl)c(Oc3cccc(Cl)c3Cl)cc2[nH]1 [triclabendazole, 5-Chloro-6-(2,3-dichlorophenoxy)-2-methylthio-1H-benzimidazole] | highly effective against liver flukes at all stages of their life cycle | no loss in activity | remained in solution | highly insoluble
Abamectin | – | no loss in activity | – | –
